Results taken from ChEMBL document CHEMBL1201862, “PubChem BioAssay data set” (2004).
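Growth conditions: 96-well plates. Treatment: test compound, 48 hours, 5 concentrations. Analysis: linear interpolation between bracketing concentrations; unreached endpoints set to highest concentration. At the GI50, growth is halved.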 Active and inactive are the calls of the source. No stated cut-off is given here; in the data, active = GI50 up to about 1.1 µM and inactive = higher.

How the values were obtained:
Assay in all cases: NCI anticancer screen, dose series, 48 h
[1] = test system: Hs-578T
[2] = test system: NCI-H226
[3] = test system: ACHN
[4] = test system: SK-MEL-5
[5] = test system: T47D
[6] = test system: EKVX
[7] = test system: OVCAR-5
[8] = test system: DU-145
[9] = test system: HOP-92
[10] = test system: A498
[11] = test system: UO-31
[12] = test system: RXF 393
[13] = test system: SN12C
[14] = test system: HCT-116
[15] = test system: MDA-N
[16] = test system: SW-620
[17] = test system: HT-29
[18] = test system: SF-295
[19] = test system: MCF7
[20] = test system: MOLT-4

SMILES | GI50 [1] | GI50 [2] | GI50 [3] | GI50 [4] | GI50 [5] | GI50 [6] | GI50 [7] | GI50 [8] | GI50 [9] | GI50 [10] | GI50 [11] | GI50 [12] | GI50 [13] | GI50 [14] | GI50 [15] | GI50 [16] | GI50 [17] | GI50 [18] | GI50 [19] | GI50 [20]
COc1ccc(-c2ncnc(-c3ccc(OC)c(OC)c3)n2)cc1OC | > 100 µM (inactive) | > 100 µM (inactive) | > 100 µM (inactive) | > 100 µM (inactive) | > 100 µM (inactive) | > 100 µM (inactive) | > 100 µM (inactive) | > 100 µM (inactive) | > 100 µM (inactive) | > 100 µM (inactive) | 91 µM (inactive) | 36.5 µM (inactive) | > 100 µM (inactive) | > 100 µM (inactive) | > 100 µM (inactive) | > 100 µM (inactive) | > 100 µM (inactive) | > 100 µM (inactive) | > 100 µM (inactive) | –
Cc1n2nc(N)sc2n[n+]1Cc1ccccc1 | > 100 µM (inactive) | > 100 µM (inactive) | > 100 µM (inactive) | 49.5 µM (inactive) | 38.4 µM (inactive) | 97.5 µM (inactive) | > 100 µM (inactive) | > 100 µM (inactive) | – | > 100 µM (inactive) | > 100 µM (inactive) | > 100 µM (inactive) | > 100 µM (inactive) | > 100 µM (inactive) | > 100 µM (inactive) | > 100 µM (inactive) | > 100 µM (inactive) | > 100 µM (inactive) | > 100 µM (inactive) | > 100 µM (inactive)
CC(C)N/C(=N\C#N)NS(=O)(=O)c1cnccc1Nc1ccc(Cl)cc1 | > 100 µM (inactive) | > 100 µM (inactive) | > 100 µM (inactive) | > 100 µM (inactive) | > 100 µM (inactive) | > 100 µM (inactive) | > 100 µM (inactive) | > 100 µM (inactive) | – | > 100 µM (inactive) | > 100 µM (inactive) | > 100 µM (inactive) | > 100 µM (inactive) | > 100 µM (inactive) | > 100 µM (inactive) | > 100 µM (inactive) | > 100 µM (inactive) | > 100 µM (inactive) | > 100 µM (inactive) | > 100 µM (inactive)
C=CC1(c2ccc3ccccc3c2)OCC(CC)(CC)CO1 | 18.7 µM (inactive) | 16.4 µM (inactive) | 20.5 µM (inactive) | 18.5 µM (inactive) | 22.5 µM (inactive) | – | 18.8 µM (inactive) | 45.1 µM (inactive) | 23.4 µM (inactive) | – | 32.7 µM (inactive) | 20 µM (inactive) | 21.7 µM (inactive) | 21.3 µM (inactive) | 29.3 µM (inactive) | 14.9 µM (inactive) | 20.3 µM (inactive) | 25.8 µM (inactive) | 37.6 µM (inactive) | 18.2 µM (inactive)
CC/C=C/C[C@H](O)[C@H]1C[C@H]2O[C@H](CC(=O)OC)C[C@H]2O1 | > 100 µM (inactive) | > 100 µM (inactive) | > 100 µM (inactive) | > 100 µM (inactive) | > 100 µM (inactive) | > 100 µM (inactive) | > 100 µM (inactive) | > 100 µM (inactive) | – | > 100 µM (inactive) | > 100 µM (inactive) | > 100 µM (inactive) | > 100 µM (inactive) | > 100 µM (inactive) | > 100 µM (inactive) | > 100 µM (inactive) | > 100 µM (inactive) | > 100 µM (inactive) | > 100 µM (inactive) | > 100 µM (inactive)
O=C(NCCCNCCCCNCCCNC(=O)C(F)(F)F)C(F)(F)F | > 100 µM (inactive) | > 100 µM (inactive) | > 100 µM (inactive) | > 100 µM (inactive) | > 100 µM (inactive) | > 100 µM (inactive) | > 100 µM (inactive) | > 100 µM (inactive) | – | > 100 µM (inactive) | > 100 µM (inactive) | > 100 µM (inactive) | 52.6 µM (inactive) | > 100 µM (inactive) | > 100 µM (inactive) | 54.8 µM (inactive) | > 100 µM (inactive) | > 100 µM (inactive) | > 100 µM (inactive) | 0.359 µM (active)
O=C(CCCN1CCC2(CC1)CC(=O)N(N1CCCCCC1)C2=O)c1ccc(F)cc1 | 35.7 µM (inactive) | – | > 100 µM (inactive) | 34.4 µM (inactive) | 77.1 µM (inactive) | > 100 µM (inactive) | 41.7 µM (inactive) | > 100 µM (inactive) | – | 62.7 µM (inactive) | 91.6 µM (inactive) | 23.6 µM (inactive) | > 100 µM (inactive) | 55 µM (inactive) | > 100 µM (inactive) | > 100 µM (inactive) | 16.4 µM (inactive) | 27.6 µM (inactive) | 46.2 µM (inactive) | 36.1 µM (inactive)
